Laboratory results: ChEMBL document CHEMBL1138133, “6-Acylamino-2-amino-4-methylquinolines as potent melanin-concentrating hormone 1 receptor antagonists: structure-activity exploration of eastern and western parts” (Bioorg Med Chem Lett, 2006)

Legend:
[1] = target: T1, Melanin-concentrating hormone receptor 1 (Homo sapiens, UniProt Q99705); assay: Inhibition of human MCH1 receptor by SPA assay
[2] = target: T1, Melanin-concentrating hormone receptor 1; assay: Displacement of [125I]MCH from human MCH1 receptor expressed in CHO cell by WC assay; type: cell-based
[3] = target: T1, Melanin-concentrating hormone receptor 1; assay: […] human MCH1 receptor expressed in CHO cell by IP3 assay; type: cell-based

T1 sequence (Q99705 whole entry): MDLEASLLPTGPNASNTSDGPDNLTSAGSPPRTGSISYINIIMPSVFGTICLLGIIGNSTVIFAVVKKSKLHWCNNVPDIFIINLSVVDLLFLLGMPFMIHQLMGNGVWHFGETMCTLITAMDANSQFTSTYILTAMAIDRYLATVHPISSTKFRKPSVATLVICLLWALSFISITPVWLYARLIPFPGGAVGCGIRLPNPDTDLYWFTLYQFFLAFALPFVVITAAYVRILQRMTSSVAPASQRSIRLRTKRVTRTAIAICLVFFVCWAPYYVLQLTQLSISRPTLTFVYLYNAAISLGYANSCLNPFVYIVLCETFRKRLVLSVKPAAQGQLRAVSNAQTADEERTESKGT

## Cc1cc(N(C)CCN(C)C)nc2ccc(NC(=O)/C=C/c3ccccc3Cl)cc12
[1]
  IC50: 2540 nM

## Cc1cc(N2CCCN(C)CC2)nc2ccc(NC(=O)COc3ccc(OC(F)(F)F)cc3)cc12
[2]
  IC50: 3.7 nM
[1]
  IC50: 20 nM
[3]
  IC50: 244 nM

## Cc1ccc(/C=C/C(=O)Nc2ccc3nc(N(C)CCN(C)C)cc(C)c3c2)cc1
[2]
  IC50: 17 nM
[1]
  IC50: 48 nM
[3]
  IC50: 478 nM

## Cc1cc(N(C)CCN(C)C)nc2ccc(NC(=O)c3ccc(-c4ccc(C(F)(F)F)cc4)cc3)cc12
[2]
  IC50: 10 nM

## Cc1cc(N2C[C@@H](C)N[C@@H](C)C2)nc2ccc(NC(=O)COc3ccc(OC(F)(F)F)cc3)cc12
[2]
  IC50: 44 nM
[1]
  IC50: 87 nM

## Cc1cc(N(C)CCN(C)C)nc2ccc(NC(=O)CCc3ccccc3)cc12
[1]
  IC50: > 10000 nM

## Cc1cc(N(C)CCN(C)C)nc2ccc(NC(=O)C3CCC(c4ccc(Cl)cc4)CC3)cc12 (stereo not drawn)
[2]
  IC50: 23 nM
[1]
  IC50: 423 nM
[3]
  IC50: 393 nM

## Cc1cc(N(C)CCN(C)C)nc2ccc(NC(=O)c3ccc(Oc4ccccc4)cc3)cc12
[1]
  IC50: 210 nM

## Cc1cc(N2CCN[C@@H](C)C2)nc2ccc(NC(=O)COc3ccc(OC(F)(F)F)cc3)cc12
[2]
  IC50: 3.7 nM
[1]
  IC50: 13 nM

## CCN(CC)CCNc1cc(C)c2cc(NC(=O)COc3ccc(OC(F)(F)F)cc3)ccc2n1
[2]
  IC50: 3.2 nM
[1]
  IC50: 15 nM

## Cc1cc(NCC(C)(C)CN(C)C)nc2ccc(NC(=O)COc3ccc(OC(F)(F)F)cc3)cc12
[2]
  IC50: 4.7 nM
[1]
  IC50: 16 nM

## Cc1cc(N(C)CCN(C)C)nc2ccc(NC(=O)CNc3ccc(Cl)cc3Cl)cc12
[1]
  IC50: 125 nM

## Cc1cc(N(C)CCN(C)C)nc2ccc(NC(=O)COc3ccccc3)cc12
[1]
  IC50: > 10000 nM

## Cc1cc(N(C)CCN(C)C)nc2ccc(NC(=O)/C=C/c3ccccc3)cc12
[1]
  IC50: 6970 nM

## C/C(=C\c1ccccc1)C(=O)Nc1ccc2nc(N(C)CCN(C)C)cc(C)c2c1
[1]
  IC50: 9460 nM

## Cc1cc(N(C)CCN(C)C)nc2ccc(NC(=O)Cc3ccc(-c4ccccc4)cc3)cc12
[1]
  IC50: 3280 nM

## Cc1cc(NC2CCN(Cc3ccccc3)CC2)nc2ccc(NC(=O)COc3ccc(OC(F)(F)F)cc3)cc12
[2]
  IC50: 13 nM
[1]
  IC50: 40 nM
[3]
  IC50: 91 nM

## Cc1oc(-c2ccccc2)nc1CC(=O)Nc1ccc2nc(N(C)CCN(C)C)cc(C)c2c1
[1]
  IC50: 568 nM

## Cc1cc(N(C)CCN(C)C)nc2ccc(NC(=O)NCc3ccc(Br)cc3)cc12
[1]
  IC50: 271 nM

## Cc1cc(N2CCN[C@H](C)C2)nc2ccc(NC(=O)COc3ccc(OC(F)(F)F)cc3)cc12
[2]
  IC50: 4.1 nM
[1]
  IC50: 18 nM
[3]
  IC50: 100 nM

## Cc1cc(N(C)CCN(C)C)nc2ccc(NC(=O)c3ccc(Oc4ccccc4)nc3)cc12
[1]
  IC50: 105 nM

## Cc1cc(NCCN2CCOCC2)nc2ccc(NC(=O)COc3ccc(OC(F)(F)F)cc3)cc12
[2]
  IC50: 1.3 nM
[1]
  IC50: 9.6 nM

## Cc1cc(N(C)CCN(C)C)nc2ccc(NC(=O)CCc3ccc(OC(F)(F)F)cc3)cc12
[2]
  IC50: 14 nM
[1]
  IC50: 40 nM

## Cc1cc(N2CCN(CCO)CC2)nc2ccc(NC(=O)COc3ccc(OC(F)(F)F)cc3)cc12
[2]
  IC50: 1.7 nM
[1]
  IC50: 5 nM

## Cc1cc(N(C)CCN(C)C)nc2ccc(NC(=O)c3cc4ccccc4s3)cc12
[1]
  IC50: 2100 nM

## Cc1cc(N(C)CCN(C)C)nc2ccc(NC(=O)COc3ccc(Cl)cc3)cc12
[2]
  IC50: 33 nM
[1]
  IC50: 83 nM
[3]
  IC50: 807 nM

## Cc1cc(N(C)CCN(C)C)nc2ccc(NC(=O)COc3ccc(OC(F)(F)F)cc3)cc12
[2]
  IC50: 2.3 nM
[1]
  IC50: 18 nM
[3]
  IC50: 31 nM

## Cc1cc(NCCN(C)C)nc2ccc(NC(=O)COc3ccc(OC(F)(F)F)cc3)cc12
[2]
  IC50: 5.3 nM
[1]
  IC50: 18 nM

## Cc1cc(N(C)CCN(C)C)nc2ccc(NC(=O)c3ccc(OC(F)(F)F)cc3)cc12
[1]
  IC50: 2760 nM

## Cc1cc(N(C)CCN(C)C)nc2ccc(NC(=O)CCc3nc(-c4ccccc4)c(-c4ccccc4)o3)cc12
[1]
  IC50: 162 nM

## Cc1cc(NCCN(C(C)C)C(C)C)nc2ccc(NC(=O)COc3ccc(OC(F)(F)F)cc3)cc12
[2]
  IC50: 7.1 nM

## Cc1cc(NCCN2CCCCC2)nc2ccc(NC(=O)COc3ccc(OC(F)(F)F)cc3)cc12
[2]
  IC50: 0.91 nM
[1]
  IC50: 5.3 nM
[3]
  IC50: 33 nM

## Cc1cc(N2CCCNCC2)nc2ccc(NC(=O)COc3ccc(OC(F)(F)F)cc3)cc12
[2]
  IC50: 2 nM

## Cc1cc(N(C)CCN(C)C)nc2ccc(NC(=O)c3ccc(-c4ccccc4)cc3)cc12
[2]
  IC50: 5.7 nM
[1]
  IC50: 42 nM
[3]
  IC50: 25 nM

## Cc1cc(N2C[C@@H](C)NC[C@@H]2C)nc2ccc(NC(=O)COc3ccc(OC(F)(F)F)cc3)cc12 (racemic)
[2]
  IC50: 3.4 nM
[1]
  IC50: 20 nM

## Cc1cc(N(C)CCN(C)C)nc2ccc(NC(=O)C3CC3c3ccccc3)cc12 (racemic)
[1]
  IC50: > 10000 nM
